Patent US11427558B1, “Indazoles and azaindazoles as LRRK2 inhibitors” (ESCAPE Bio, Inc., priority 2019, dated 2022)

Key:
[1] = biological target: Recombinant G2019S-LRRK2 protein (Homo sapiens (Human), UniProt Q5S007, G2019S); test: LRRK2 kinase activity, LanthaScreen TR-FRET assay (G2019S); format: biochemical; settings: LRRKtide 400 nM, 25 μM ATP, 60 min
In short: (§1)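 Recombinant human wild-type or G2019S LRRK2 phosphorylated fluorescein-labelled LRRKtide (ERM-based) with ATP and serially diluted compound for 60 min at room temperature.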

[2] = biological target: Recombinant wild type LRRK2 protein (Homo sapiens (Human), UniProt Q5S007); test: LRRK2 kinase activity, LanthaScreen TR-FRET assay (wild type); format: biochemical; settings: LRRKtide 400 nM, 25 μM ATP, 60 min; read-out: LRRK2 WT IC50
In short: as §1

Sequence of Recombinant G2019S-LRRK2 protein (Q5S007 whole entry G2019S): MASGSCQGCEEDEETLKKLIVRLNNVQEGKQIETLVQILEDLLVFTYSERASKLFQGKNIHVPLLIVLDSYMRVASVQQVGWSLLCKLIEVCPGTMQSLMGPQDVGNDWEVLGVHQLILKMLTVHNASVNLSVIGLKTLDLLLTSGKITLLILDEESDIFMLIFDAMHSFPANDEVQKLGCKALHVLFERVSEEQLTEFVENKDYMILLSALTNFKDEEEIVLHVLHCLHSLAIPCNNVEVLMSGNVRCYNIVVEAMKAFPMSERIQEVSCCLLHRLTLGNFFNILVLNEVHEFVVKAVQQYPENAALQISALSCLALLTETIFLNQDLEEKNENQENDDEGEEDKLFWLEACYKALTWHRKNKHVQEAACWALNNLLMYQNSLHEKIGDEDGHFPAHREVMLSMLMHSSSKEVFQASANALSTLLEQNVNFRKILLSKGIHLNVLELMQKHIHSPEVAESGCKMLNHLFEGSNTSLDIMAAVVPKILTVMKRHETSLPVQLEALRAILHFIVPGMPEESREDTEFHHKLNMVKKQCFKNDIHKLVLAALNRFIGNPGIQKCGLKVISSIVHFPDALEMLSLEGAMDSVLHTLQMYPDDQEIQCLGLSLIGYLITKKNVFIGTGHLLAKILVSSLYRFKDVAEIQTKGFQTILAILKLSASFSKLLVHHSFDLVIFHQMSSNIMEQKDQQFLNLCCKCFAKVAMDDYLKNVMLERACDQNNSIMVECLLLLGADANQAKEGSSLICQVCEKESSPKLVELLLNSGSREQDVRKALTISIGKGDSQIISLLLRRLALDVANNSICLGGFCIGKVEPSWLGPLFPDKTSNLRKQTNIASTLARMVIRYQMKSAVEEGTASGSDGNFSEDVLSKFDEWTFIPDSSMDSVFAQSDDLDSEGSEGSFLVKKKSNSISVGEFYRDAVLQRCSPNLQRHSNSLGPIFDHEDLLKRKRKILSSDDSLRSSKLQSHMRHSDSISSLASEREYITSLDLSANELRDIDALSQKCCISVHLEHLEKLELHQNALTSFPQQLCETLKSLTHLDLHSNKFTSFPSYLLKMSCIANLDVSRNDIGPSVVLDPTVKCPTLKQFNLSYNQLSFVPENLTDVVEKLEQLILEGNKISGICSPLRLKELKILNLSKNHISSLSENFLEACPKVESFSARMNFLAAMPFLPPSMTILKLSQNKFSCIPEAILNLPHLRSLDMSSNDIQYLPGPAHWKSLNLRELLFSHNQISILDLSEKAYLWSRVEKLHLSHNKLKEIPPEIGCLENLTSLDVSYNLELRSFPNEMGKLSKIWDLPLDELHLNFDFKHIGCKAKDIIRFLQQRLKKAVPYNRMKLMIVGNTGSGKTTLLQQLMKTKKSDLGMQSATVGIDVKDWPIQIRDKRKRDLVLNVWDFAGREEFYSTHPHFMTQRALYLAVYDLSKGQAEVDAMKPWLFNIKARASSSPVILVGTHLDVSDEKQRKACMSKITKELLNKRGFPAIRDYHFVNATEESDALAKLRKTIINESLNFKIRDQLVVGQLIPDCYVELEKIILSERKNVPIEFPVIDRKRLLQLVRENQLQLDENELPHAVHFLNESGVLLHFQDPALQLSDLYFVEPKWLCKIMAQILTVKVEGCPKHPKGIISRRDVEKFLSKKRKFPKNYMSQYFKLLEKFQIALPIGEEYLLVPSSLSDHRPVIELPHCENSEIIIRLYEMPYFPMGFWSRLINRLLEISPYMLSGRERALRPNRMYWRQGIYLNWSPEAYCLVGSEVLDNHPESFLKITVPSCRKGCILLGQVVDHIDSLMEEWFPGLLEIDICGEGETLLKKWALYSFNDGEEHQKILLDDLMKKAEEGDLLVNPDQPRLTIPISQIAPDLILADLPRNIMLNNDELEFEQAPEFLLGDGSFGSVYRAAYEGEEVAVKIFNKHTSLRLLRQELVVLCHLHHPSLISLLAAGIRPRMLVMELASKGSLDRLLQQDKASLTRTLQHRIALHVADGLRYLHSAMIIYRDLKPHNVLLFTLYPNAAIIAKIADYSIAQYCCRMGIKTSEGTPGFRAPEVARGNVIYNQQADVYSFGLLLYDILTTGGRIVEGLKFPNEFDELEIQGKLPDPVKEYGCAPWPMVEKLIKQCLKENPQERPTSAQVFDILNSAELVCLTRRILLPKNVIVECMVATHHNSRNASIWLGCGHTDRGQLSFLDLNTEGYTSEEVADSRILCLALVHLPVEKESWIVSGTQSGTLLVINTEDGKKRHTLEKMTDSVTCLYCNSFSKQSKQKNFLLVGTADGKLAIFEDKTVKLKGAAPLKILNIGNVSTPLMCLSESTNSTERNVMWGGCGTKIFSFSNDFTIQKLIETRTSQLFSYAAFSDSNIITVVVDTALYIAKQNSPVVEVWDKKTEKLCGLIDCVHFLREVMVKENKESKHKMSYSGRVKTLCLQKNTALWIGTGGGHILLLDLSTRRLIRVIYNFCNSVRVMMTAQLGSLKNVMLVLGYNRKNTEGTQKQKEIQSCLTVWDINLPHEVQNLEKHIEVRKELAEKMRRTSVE
Sequence of Recombinant wild type LRRK2 protein (Q5S007 whole entry): as the sequence (Q5S007 whole entry G2019S) above, with S2019G counted along it

COc1c(C#N)cnc(C(=O)Nc2ccc3[nH]nc(-c4cnco4)c3c2)c1C [Example 211, 5-Cyano-4-methoxy-3-methyl-N-(3-(oxazol-5-yl)-1H-indazol-5-yl)picolinamide]
IC50 [1]: < 100 nM | IC50 [2]: < 100 nM

N#Cc1cccc(C(=O)Nc2ccc3[nH]nc(-c4cnco4)c3c2)c1OC(F)(F)F [Example 212, 3-Cyano-N-(3-(oxazol-5-yl)-1H-indazol-5-yl)-2-(trifluoromethoxy)benzamide]
IC50 [1]: < 100 nM | IC50 [2]: < 100 nM

Cc1c(C(=O)Nc2ccc3[nH]nc(-c4cnco4)c3c2)cc(C#N)c(=O)n1C [Example 213, 5-Cyano-1,2-dimethyl-N-(3-(oxazol-5-yl)-1H-indazol-5-yl)-6-oxo-1,6-dihydropyridine-3-carboxamide]
IC50 [1]: < 100 nM | IC50 [2]: < 100 nM

C=C(C)c1c(C#N)cccc1C(=O)Nc1ccc2[nH]nc(-c3cnco3)c2c1 [Example 214, 3-Cyano-N-(3-(oxazol-5-yl)-1H-indazol-5-yl)-2-(prop-1-en-2-yl)benzamide]
IC50 [1]: < 100 nM | IC50 [2]: < 100 nM

Cc1c(C#N)cnc(C(=O)Nc2ccc3[nH]nc(-c4cnn(C5CCN(C)CC5)c4)c3c2)c1C [Example 215, 5-Cyano-3,4-dimethyl-N-(3-(1-(1-methylpiperidin-4-yl)-1H-pyrazol-4-yl)-1H-indazol-5-yl)picolinamide]
IC50 [1]: < 100 nM | IC50 [2]: < 100 nM

Cc1c(C(=O)Nc2ccc3[nH]nc(-c4cnoc4)c3c2)nc(Cl)c(C#N)c1C [Example 216, 6-Chloro-5-cyano-N-(3-(isoxazol-4-yl)-1H-indazol-5-yl)-3,4-dimethylpicolinamide]
IC50 [1]: < 100 nM | IC50 [2]: < 100 nM

Cc1c(C#N)cnc(C(=O)Nc2ccc3[nH]nc(-c4cnn(C(C)C)c4)c3c2)c1C [Example 217, 5-Cyano-N-(3-(1-isopropyl-1H-pyrazol-4-yl)-1H-indazol-5-yl)-3,4-dimethylpicolinamide]
IC50 [1]: < 100 nM | IC50 [2]: < 100 nM

N#Cc1cnc(C(=O)Nc2ccc3[nH]nc(-c4cnoc4)c3c2)c2c1CCC2 [Example 218, 4-cyano-N-(3-(isoxazol-4-yl)-1H-indazol-5-yl)-6,7-dihydro-5H-cyclopenta[c]pyridine-1-carboxamide]
IC50 [1]: < 100 nM | IC50 [2]: 1000 to 10000 nM

COc1cc(-c2n[nH]c3ccc(NC(=O)c4ncc(C#N)c(C)c4C)cc23)cc(C)n1 [Example 219, 5-Cyano-N-(3-(2-methoxy-6-methylpyridin-4-yl)-1H-indazol-5-yl)-3,4-dimethylpicolinamide]
IC50 [1]: < 100 nM | IC50 [2]: < 100 nM

N#Cc1cccc(C(=O)Nc2ccc3[nH]nc(-c4cnoc4)c3c2)c1Cl [Example 220, 2-Chloro-3-cyano-N-(3-(isoxazol-4-yl)-1H-indazol-5-yl)benzamide]
IC50 [1]: < 100 nM | IC50 [2]: < 100 nM

Cc1c(C#N)cnc(C(=O)Nc2ccc3[nH]nc(-c4cnn(C5COC5)c4)c3c2)c1C [Example 221, 5-Cyano-3,4-dimethyl-N-(3-(1-(oxetan-3-yl)-1H-pyrazol-4-yl)-1H-indazol-5-yl)picolinamide]
IC50 [1]: < 100 nM | IC50 [2]: < 100 nM

Cc1nc(C(=O)Nc2ccc3[nH]nc(-c4cncs4)c3c2)c(C)c(C)c1C#N [Example 222, 5-Cyano-3,4,6-trimethyl-N-(3-(thiazol-5-yl)-1H-indazol-5-yl)picolinamide]
IC50 [1]: < 100 nM | IC50 [2]: < 100 nM

Cc1c(C#N)cnc(C(=O)Nc2ccc3[nH]nc(C4CC4)c3c2)c1C [Example 223, 5-Cyano-N-(3-cyclopropyl-1H-indazol-5-yl)-3,4-dimethylpicolinamide]
IC50 [1]: < 100 nM | IC50 [2]: 1000 to 10000 nM

Cn1cc(C(=O)Nc2ccc3[nH]nc(-c4cnco4)c3c2)cc(C#N)c1=O [Example 224, 5-cyano-1-methyl-N-(3-(oxazol-5-yl)-1H-indazol-5-yl)-6-oxo-1,6-dihydropyridine-3-carboxamide]
IC50 [1]: < 100 nM | IC50 [2]: < 100 nM

CC(C)c1c(C#N)cccc1C(=O)Nc1ccc2[nH]nc(-c3cnco3)c2c1 [Example 225, 3-Cyano-2-isopropyl-N-(3-(oxazol-5-yl)-1H-indazol-5-yl)benzamide]
IC50 [1]: < 100 nM | IC50 [2]: < 100 nM
